In patent publication US11186591B2, “Difluoromethyl-aminopyridines and difluoromethyl-aminopyrimidines” (TORQUR AG, priority 2014, dated 2021) one finds IC50 data, which are given here for 16 compounds.

For orientation: pIC50 means the negative decadic logarithm of the IC50, by convention in mol/L.

pIC50: −log10 of the molar value.

Test [1] relates to pS6 S235/S236 in A2058 cells. The test is described as follows: In-cell Western blot, pS6 S235/S236. It counts as cell-based. As to conditions: Homo sapiens, 1 hour treatment, signal normalized to α-tubulin.
Protocol: (§1) Cells are fixed with 4% paraformaldehyde for 30 minutes at room temperature, washed 2 times with 1% BSA in PBS, permeabilized with 0.1% Triton X-100 in PBS/1% BSA for 30 minutes at room temperature and blocked with 5% goat serum in PBS/1% BSA/0.1% Triton X-100 for 30 minutes at room temperature. […] Cells are washed 3 times 5 minutes with PBS/1% BSA/0.1% triton and plate scanned with the Odyssey Infrared Scanning system using both 700 and 800 nm channels. […] To correct for background staining in the data analysis wells are treated only with secondary antibodies.
(§2) For data analysis the mean background signal from channel 700 nm and 800 nm are subtracted from each signal in channel 700 nm and 800 nm, respectively.
(§3) IC50 values of each compound are determined by plotting the normalized pPBK S473 and pS6 S235/S236 signals, respectively, versus the compound concentrations (in logarithmic scale) and then by fitting a sigmoidal dose-response curve with variable slope to the data using GraphPad™ Prism.
The subject of another test is pPKB S473 in A2058 cells. As to the kind of experiment: In-cell Western blot, pPKB S473. It counts as cell-based. As to conditions: Homo sapiens, 1 hour treatment, signal normalized to α-tubulin.
A further test has as its target P110α (Homo sapiens, UniProt P42336). The test is described as follows: P110α IC50 (Table 12, comparative biological activities). In kind it is biochemical.

P110α, sequence (P42336 whole entry, species assumed): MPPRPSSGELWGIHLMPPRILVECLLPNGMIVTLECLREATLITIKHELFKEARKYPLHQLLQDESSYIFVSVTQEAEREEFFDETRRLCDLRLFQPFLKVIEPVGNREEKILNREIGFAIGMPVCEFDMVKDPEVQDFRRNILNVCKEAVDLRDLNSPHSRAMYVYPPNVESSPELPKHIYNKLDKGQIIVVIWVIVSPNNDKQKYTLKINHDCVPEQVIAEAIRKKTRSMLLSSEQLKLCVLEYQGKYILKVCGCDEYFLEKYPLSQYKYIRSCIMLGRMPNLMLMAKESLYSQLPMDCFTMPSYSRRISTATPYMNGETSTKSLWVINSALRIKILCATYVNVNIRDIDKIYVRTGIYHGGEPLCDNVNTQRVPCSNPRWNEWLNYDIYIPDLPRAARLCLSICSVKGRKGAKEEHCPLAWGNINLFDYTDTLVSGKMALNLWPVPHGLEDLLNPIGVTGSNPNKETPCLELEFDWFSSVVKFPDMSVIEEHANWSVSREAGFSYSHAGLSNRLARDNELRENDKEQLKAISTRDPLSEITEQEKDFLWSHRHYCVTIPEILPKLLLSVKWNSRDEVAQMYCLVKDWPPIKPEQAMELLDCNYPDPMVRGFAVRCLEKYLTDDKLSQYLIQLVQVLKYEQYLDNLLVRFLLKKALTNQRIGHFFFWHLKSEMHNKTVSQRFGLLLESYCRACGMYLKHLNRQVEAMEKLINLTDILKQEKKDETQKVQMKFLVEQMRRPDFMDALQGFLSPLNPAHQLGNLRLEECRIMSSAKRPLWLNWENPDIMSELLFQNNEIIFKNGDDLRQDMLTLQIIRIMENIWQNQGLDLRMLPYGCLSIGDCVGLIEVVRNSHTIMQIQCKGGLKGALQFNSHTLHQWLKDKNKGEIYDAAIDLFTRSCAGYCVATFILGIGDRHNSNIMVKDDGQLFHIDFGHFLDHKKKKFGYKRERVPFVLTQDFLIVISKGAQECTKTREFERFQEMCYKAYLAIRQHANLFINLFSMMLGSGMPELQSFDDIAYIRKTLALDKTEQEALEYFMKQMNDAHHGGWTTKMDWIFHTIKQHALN
P110α, sequence (P27986 whole entry partner, species assumed): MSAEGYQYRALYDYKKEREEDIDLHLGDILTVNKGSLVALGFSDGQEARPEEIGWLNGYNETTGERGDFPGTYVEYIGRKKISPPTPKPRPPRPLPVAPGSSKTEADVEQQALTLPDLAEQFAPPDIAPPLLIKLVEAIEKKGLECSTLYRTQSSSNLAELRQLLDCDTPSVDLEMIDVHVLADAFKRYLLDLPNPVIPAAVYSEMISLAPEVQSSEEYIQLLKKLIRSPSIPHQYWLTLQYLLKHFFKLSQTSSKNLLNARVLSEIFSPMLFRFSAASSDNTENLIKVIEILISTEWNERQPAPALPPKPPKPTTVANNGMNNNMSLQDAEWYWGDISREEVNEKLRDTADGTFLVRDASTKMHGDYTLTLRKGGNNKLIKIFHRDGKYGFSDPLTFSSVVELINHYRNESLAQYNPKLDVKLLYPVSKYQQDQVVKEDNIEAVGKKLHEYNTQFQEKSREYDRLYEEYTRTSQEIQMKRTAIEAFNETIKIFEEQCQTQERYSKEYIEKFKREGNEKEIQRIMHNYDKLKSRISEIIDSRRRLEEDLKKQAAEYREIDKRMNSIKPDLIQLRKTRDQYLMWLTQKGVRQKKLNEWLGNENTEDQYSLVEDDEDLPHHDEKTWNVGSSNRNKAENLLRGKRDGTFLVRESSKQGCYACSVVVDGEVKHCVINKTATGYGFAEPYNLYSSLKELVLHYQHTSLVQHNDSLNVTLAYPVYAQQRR
Protocol for pPKB S473 in A2058 cells: as §1, §2, §3

With `Nc1cc(C(F)(F)F)c(-c2nc(N3CCOCC3)nc(N3CCOCC3)n2)cn1`, the pIC50 in test [1] (A2058, 1 h) is 6.47; with pPKB S473 in A2058 cells (A2058, 1 h), 6.83.

Regarding `C[C@H]1COCCN1c1nc(-c2cnc(N)cc2C(F)F)nc(N2CCOC[C@@H]2C)n1`, the pIC50 in test [1] (A2058, 1 h) was 6.67; in the test on pPKB S473 in A2058 cells (A2058, 1 h), 6.81.

For the compound `C[C@H]1COCCN1c1nc(-c2cnc(N)cc2C(F)(F)F)nc(N2CCOC[C@@H]2C)n1`, the pIC50 in test [1] (A2058, 1 h) is 6.36; with pPKB S473 in A2058 cells (A2058, 1 h), 6.59.

In the case of `C[C@H]1COCCN1c1nc(-c2cnc(N)nc2C(F)F)nc(N2CCOC[C@@H]2C)n1`, the negative-log IC50 (pIC50) in test [1] (A2058, 1 h) was 7.01.

Consider `C[C@H]1COCCN1c1nc(-c2cnc(N)nc2C(F)(F)F)nc(N2CCOC[C@@H]2C)n1`, for which the pIC50 in test [1] (A2058, 1 h) is 6.65; with pPKB S473 in A2058 cells (A2058, 1 h), 6.93.

`Nc1ncc(-c2nc(N3CCOCC3)cc(N3CCOCC3)n2)c(C(F)F)n1` had a negative-log IC50 (pIC50) in test [1] (A2058, 1 h) of 6.83.

Take `C[C@H]1COCCN1c1cc(-c2cnc(N)nc2C(F)F)nc(N2CCOCC2)n1`: the negative-log IC50 (pIC50) in test [1] (A2058, 1 h) is 6.84; with pPKB S473 in A2058 cells (A2058, 1 h) it was 7.11.

Take `C[C@H]1OC(=O)N(c2nc(-c3cnc(N)nc3C(F)F)nc(N3CCOCC3)n2)[C@H]1CO`: the negative logarithm of the IC50 (pIC50) was 6.79 against P110α and 7.00 in the test on pPKB S473 in A2058 cells (A2058, 1 h).

As to `Nc1cc(C(F)F)c(-c2nc(N3CCOCC3)nc(N3CCOCC3=O)n2)cn1` [Example 35, 4-[4-[6-amino-4-(difluoromethyl)-3-pyridyl]-6-morpholino-1,3,5-triazin-2-yl]morpholin-3-one], the pIC50 in test [1] (A2058, 1 h) is 6.64; with pPKB S473 in A2058 cells (A2058, 1 h), 6.68.

As to `Nc1ncc(-c2nc(N3CCOCC3)nc(N3CCOCC3=O)n2)c(C(F)F)n1` [Example 36, 4-[4-[2-amino-4-(difluoromethyl)pyrimidin-5-yl]-6-morpholino-1,3,5-triazin-2-yl]morpholin-3-one], the pIC50 was 6.82 in test [1] (A2058, 1 h) and 7.00 with pPKB S473 in A2058 cells (A2058, 1 h).

Consider `C[C@@H]1COCCN1c1nc(-c2cnc(N)cc2C(F)F)nc(-c2cnc(N)cc2C(F)F)n1` [Example 43, 5-[4-[6-amino-4-(difluoromethyl)-3-pyridyl]-6-[(3R)-3-methylmorpholin-4-yl]-1,3,5-triazin-2-yl]-4-(difluoromethyl)pyridin-2-amine], for which the pIC50 in test [1] was 6.81; in the test with pPKB S473 in A2058 cells, 6.42.

As for `Nc1cc(C(F)(F)F)c(-c2nc(N3CCNCC3)nc(N3CCOCC3)n2)cn1` [reference compound], the negative logarithm of the IC50 (pIC50) in test [1] (A2058, 1 h) is 6.13; with pPKB S473 in A2058 cells (A2058, 1 h), 6.52.

Turning to `Nc1ncc(-c2nc(N3CCNCC3)nc(N3CCOCC3)n2)c(C(F)(F)F)n1` [reference compound], the negative logarithm of the IC50 (pIC50) in test [1] (A2058, 1 h) was 6.38; in the test on pPKB S473 in A2058 cells (A2058, 1 h), 6.94.

With `Nc1cc(C(F)(F)F)c(-c2nc(N3CCOCC3)nc(N3CCSCC3)n2)cn1` [reference compound], the pIC50 is 6.25 in test [1] (A2058, 1 h) and 6.51 with pPKB S473 in A2058 cells (A2058, 1 h).

On to `Nc1ncc(-c2nc(N3CCOCC3)nc(N3CCSCC3)n2)c(C(F)(F)F)n1` [reference compound], for which the pIC50 in test [1] (A2058, 1 h) was 6.00; in the test with pPKB S473 in A2058 cells (A2058, 1 h) it was 6.46.

As to `C[C@H]1OC(=O)N(c2nc(-c3cnc(N)nc3C(F)(F)F)nc(N3CCOCC3)n2)[C@H]1CO` [reference compound], the pIC50 against P110α is 5.73; in the test with pPKB S473 in A2058 cells (A2058, 1 h) it was 6.16.
